Test system: whitefly Bemisia tabaci
Assay: Bemisia test (plant-damaging insects; infested cotton plants immersed in active compound preparation)
Format: in vivo
Conditions: single active compound, eggs, larvae and pupae on cotton plants (Gossypium hirsutum)
Experimental: • Bemisia Test • Solvent: 7.5 parts by weight of dimethylformamide Emulsifier: 2.5 parts by weight of alkylaryl polyglycol ether
To produce a suitable preparation of active compound, 1 part by weight of active compound is mixed with the stated amounts of solvent and emulsifier, and the concentrate is diluted with water to the desired concentration.
Cotton plants (Gossypium hirsutum) which are infested with eggs, larvae and pupae of the whitefly Bemisia tabaci are immersed in a preparation of active compound of the desired concentration.
After the desired period of time, the kill in % is determined. 100% means that all animals have been killed; 0% means that none of the animals have been killed.

SMILES	Kill rate in % after 10 d (4 ppm)	Kill rate in % after 10 d (20 ppm)
CC1=NNC(=O)N(/N=C/c2cccnc2)C1 [Pymetrozin, pymetrozin]	0%	
Cc1cc(C)c(C2=C(OC(=O)CC(C)(C)C)C3(CCCC3)OC2=O)c(C)c1 [Ex. (I-b-1)]	0%	80%
CC(COc1ccc(Oc2ccccc2)cc1)Oc1ccccn1 (stereo not shown) [Pyriproxiphen, pyriproxyfen]		0%

— patent US7244750B2, “Active substance combinations having insecticidal and acaricidal properties” (Bayer CropScience Aktiengesellschaft, priority 2000, dated 2007)
